“Also recorded” adds a separate entry of the source.
Experiments:
[1] = system: ligature-induced periodontitis; experiment: Second NHP study: ligature-induced periodontitis, mandibular posterior teeth, split-mouth, four monkeys; type: in vivo, cynomolgus monkey; conditions: n=4 monkeys
Experimental: FIG. 6A, FIG. 6B, FIG. 6C, and FIG. 6D show measurements for probing pocket depth, gingival index, bleeding on probing, and mobility index, respectively, between Cp40 treated and control animals. Starting 3 days after initiation of ligature-induced periodontitis, Cp40 (500 μg) or control were injected locally into the mandibular interdental papillae from the 1st premolar to the 2nd molar, three times weekly, in opposites sides of the mouth (split-mouth design). The effects of Cp40 were determined on the indicated inflammatory clinical parameters at the indicated timepoints. In all animals, the gingival margin was at the cement-enamel junction, and thus, PPD readings equaled clinical attachment loss (CAL). Data are means±SD (n=4 monkeys). *, P<0.05; **, P<0.01 vs. control.
Specifically, levels of TNF-α (FIG. 7A), IL-1β (FIG. 7B), IL-6 (FIG. 7C), interleukin 8 (IL-8; FIG. 7D), IL-17A (FIG. 7E), interleukin 18 (IL-18; FIG. 7F), granulocyte colony-stimulating factor (G-CSF; FIG. 7G), RANKL (FIG. 7H), and OPG (FIG. 7I) were measured. At the same timepoints that clinical exams were performed (as per FIGS. 6A-6D), GCF was collected from the same monkeys (treatment details in FIGS. 6A-6D legend) using PERIOPAPER absorbent strips to assay the indicated cytokines. Total cytokine content in the eluted GCF samples was measured using MILLIPLEX MAP (multi-analyte panels) kits on a BIO-PLEX detection system. Data are means±SD (n=4 monkeys). *, P<0.05; **, P<0.01 vs. control.
FIGS. 8A-8C are graphs showing inhibition of periodontal bone loss following treatment of NHP periodontitis with Cp40. Four monkeys were treated as described in the legend to FIGS. 6A-6D, and their mandibular bone heights (CEJ-ABC distance) were measured using standardized X-ray images (taken at baseline and at week 6) and NIKON imaging system software. Measurements were made at six points (1st premolar, distal; 2nd premolar mesial & distal; 1st molar, mesial & distal; 2nd molar mesial) and the data in FIG. 8A and FIG. 8B reflect, respectively, the 6-site total at baseline (FIG. 8A) and at week 6 (FIG. 8B). For each control or Cp40 treatment, bone loss was calculated as bone height at baseline minus bone height at 6 weeks (FIG. 8C). The difference between Cp40 and control was significant (P<0.05; paired t test).
In a second NHP study, ligature-induced periodontitis was induced by placing ligatures around the mandibular posterior teeth (i.e., in the lower jaw) of the same two animals plus in two additional animals (total of four monkeys). The results obtained (FIGS. 6, 7, and 8) confirmed the results of the original study. Moreover, the presence of four animals allowed the possibility for statistical analysis.

[2] = system: ligature-induced periodontitis; experiment: Initial NHP study: ligature-induced periodontitis, maxillary posterior teeth, split-mouth, 6 weeks, two animals; type: in vivo, cynomolgus monkey; conditions: for clinical inflammation (inflammatory clinical parameters: probing pocket depth, gingival index, bleeding on probing, mobility index): Cp40 500 μg injected locally into maxillary interdental papillae, from day 3, vs inactive analog on contralateral side, 6 weeks, FIG. 4; for levels of proinflammatory cytokines in the gingival crevicular fluid (GCF): FIG. 5; for numbers of osteoclasts (TRAP-positive multinucleated cells) in bone biopsy specimens / osteoclastogenesis: FIG. 5G
Experimental: FIG. 4A, FIG. 4B, FIG. 4C, and FIG. 4D show results for probing pocket depth, gingival index, bleeding on probing, and mobility index, respectively, which are measurements typically used to detect clinical periodontal inflammation and bone lose. FIG. 4E represents a radiograph measurement of bone height. Starting 3 days after initiation of ligature-induced periodontitis, Cp40 (500 μg) was injected locally into the maxillary interdental papillae from the 1st premolar to the 2nd molar, in two animals, three times weekly. […] Shown are the effects of Cp40 on the indicated inflammatory clinical parameters and bone heights, determined using standardized X-ray images (taken at week 6) and NIKON imaging system software. Specifically, the distance between the cement-enamel junction (CEJ) and alveolar bone crest (ABC) was measured at six points (1st premolar, distal; 2nd premolar mesial & distal; 1st molar, mesial & distal; 2nd molar mesial) and the data in Panel E reflect the 6-site total. The higher CEJ-ABC distance values of the controls as compared to those of Cp40 treatments signify increased bone loss in the absence of drug treatment. In all animals, the gingival margin was at the cement-enamel junction, and thus, PPD readings equaled clinical attachment loss (CAL).
Specifically, the panels show the relative protein levels for TNF (FIG. 5A), IL-1b (FIG. 5B), IL-6 (FIG. 5C), IL-17A (FIG. 5D), receptor activator of nuclear factor kappa-B ligand (RANKL; FIG. 5E), and osteoprotegerin (OPG; FIG. 5F). At the same timepoints that clinical exams were performed (as per FIGS. 4A-4E), GCF was collected from the same monkeys (treatment details in FIGS. 4A-4E legend) using PERIOPAPER absorbent strips to assay the indicated cytokines. Total cytokine content in the eluted GCF samples was measured using MILLIPLEX MAP (multi-analyte panels) kits on a BIO-PLEX detection system. In FIG. 5G, TRAP-positive multinucleated cells (osteoclasts) were enumerated in nine serial sections for each bone biopsy specimen taken between the 2nd premolar and 1st molar of each animal.
The cynomolgus monkey model is therefore considerably more predictive of drug efficacy in human periodontitis as compared to other, widely used preclinical animal models such as rodents. Moreover, the cynomolgus model of ligature-induced periodontitis allows longitudinal examination of the disease in a way that cannot be performed in humans.
Thus, each animal served as its own control. An initial study with a 6-week duration was conducted using two animals.

[3] = Cp40 500 μg local, three times weekly, vs inactive analog control

Compound | probing pocket depth (PPD), protective effect ([1]; Cp40 500 μg injected locally into mandibular interdental papillae, three times weekly, vs control, FIG. 6A) | inflammatory clinical parameters (overall) ([1]; Cp40 500 μg local mandibular, three times weekly, vs control, FIG. 6) | gingival index (GI), protective effect ([1]; Cp40 500 μg local mandibular, three times weekly, vs control, FIG. 6B) | GCF levels of proinflammatory cytokines (cytokine responses) ([1]; Cp40 500 μg local mandibular, three times weekly, vs control, FIG. 7) | periodontal bone loss (bone height at baseline minus bone height at 6 weeks, CEJ-ABC distance) ([1]; Cp40 500 μg local mandibular, three times weekly, vs control, P<0.05 paired t test, FIG. 8C) | GCF RANKL levels ([1]; Cp40 vs. control treatment, FIG. 7H) | GCF OPG levels ([1]; Cp40 vs. control treatment, FIG. 7I) | clinical inflammation (inflammatory clinical parameters: probing pocket depth, gingival index, bleeding on probing, mobility index) ([2]; three times weekly) | bone loss (radiographic bone height, CEJ-ABC distance, 6-site total) ([2]; Cp40 500 μg local, three times weekly, X-ray at week 6, vs inactive analog control, FIG. 4E) | levels of proinflammatory cytokines in the gingival crevicular fluid (GCF) [2, 3] | GCF levels of RANKL ([2]; Cp40 500 μg local, three times weekly, vs inactive analog control, FIG. 5E) | numbers of osteoclasts (TRAP-positive multinucleated cells) in bone biopsy specimens / osteoclastogenesis [2, 3] | GCF levels of osteoprotegerin (OPG) ([2]; Cp40-treated sites vs control sites during the course of the study, FIG. 5F)
dTyr-Ile-Cys*-Val-Trp(1Me)-Gln-Asp-Trp-Sar-Ala-His-Arg-Cys*-mIle-NH2 (YICVWQDWGAHRCI; D-Tyr, Trp(1Me), Sar, mIle, disulfide cyclisation, C-terminal amide; compstatin analog (Cp40); MOD_RES (1)..(1) D-Tyrosine; DISULFID (3)..(13) Cysteines joined via disulfide bridge.; MOD_RES (5)..(5) 1-methyl-tryptophan; MOD_RES (9)..(9) …ON, MeGly; MOD_RES (14)..(14) …ON; MOD_RES (14)..(14) AMIDATION) | reached statistical significance | significant inhibition of inflammatory clinical parameters | reached statistical significance | decreased GCF levels of proinflammatory cytokines; also recorded: reached statistical significance | significant inhibition of bone loss | decreased RANKL | increased OPG levels | decreases inflammatory clinical parameters | decreased bone loss | inhibits proinflammatory cytokine production | decreased GCF levels of RANKL | decreased osteoclastogenesis | maintained at higher levels
CC[C@H](C)[C@H](N)C(=O)N[C@H]1CSSC[C@@H](C(=O)N[C@H](C(N)=O)[C@@H](C)O)NC(=O)[C@H](CCCN=C(N)N)NC(=O)[C@H](Cc2cnc[nH]2)NC(=O)[C@H](Cc2cnc[nH]2)NC(=O)CNC(=O)[C@H](Cc2c[nH]c3ccccc23)NC(=O)[C@H](CC(=O)O)NC(=O)[C@H](CCC(N)=O)NC(=O)[C@H](C(C)C)NC(=O)[C@H](C(C)C)NC1=O [Compstatin, Ile-Cys*-Val-Val-Gln-Asp-Trp-Gly-His-His-Arg-Cys*-Thr] | – | – | – | – | – | – | – | decreased clinical inflammation | – | reduced levels of proinflammatory cytokines | – | lower numbers of osteoclasts | –
